Laboratory results as given in ChEMBL document CHEMBL5614460, “Discovery of novel substituted pyridine carboxamide derivatives as potent allosteric SHP2 inhibitors” (Eur J Med Chem, 2024).

These compounds were tested on MV4-11 (assay: Antiproliferative activity against human MV4-11 cells assessed as inhibition of cell proliferation incubated for 72 hrs by CCK-8 assay). Settings: Homo sapiens, MV4-11, 72 h.
Type: functional, cell-based

SMILES	IC50 [nM]
C[C@@H]1OCC2(CCN(c3cnc(Sc4cccc(NC(=O)c5cnccc5O)c4Cl)cn3)CC2)[C@@H]1N	16.6
C[C@@H]1OCC2(CCN(c3cnc(Sc4cccc(NC(=O)c5cccnc5O)c4Cl)cn3)CC2)[C@@H]1N	45.5

What follows are compounds tested against T1, Tyrosine-protein phosphatase non-receptor type 11 (Homo sapiens) (UniProt Q06124) (assay: Allosteric inhibition of N-terminal His-tagged human recombinant SHP2 extracted from Escherichia coli using DiFMUP as substrate at 10 uM preincubated with compound for 60 mins followed by substrate addition and measured after 30 mins by fluorescence based microplate reader analysis relative to control). Settings: time 90.0 min.
T1 sequence (whole entry): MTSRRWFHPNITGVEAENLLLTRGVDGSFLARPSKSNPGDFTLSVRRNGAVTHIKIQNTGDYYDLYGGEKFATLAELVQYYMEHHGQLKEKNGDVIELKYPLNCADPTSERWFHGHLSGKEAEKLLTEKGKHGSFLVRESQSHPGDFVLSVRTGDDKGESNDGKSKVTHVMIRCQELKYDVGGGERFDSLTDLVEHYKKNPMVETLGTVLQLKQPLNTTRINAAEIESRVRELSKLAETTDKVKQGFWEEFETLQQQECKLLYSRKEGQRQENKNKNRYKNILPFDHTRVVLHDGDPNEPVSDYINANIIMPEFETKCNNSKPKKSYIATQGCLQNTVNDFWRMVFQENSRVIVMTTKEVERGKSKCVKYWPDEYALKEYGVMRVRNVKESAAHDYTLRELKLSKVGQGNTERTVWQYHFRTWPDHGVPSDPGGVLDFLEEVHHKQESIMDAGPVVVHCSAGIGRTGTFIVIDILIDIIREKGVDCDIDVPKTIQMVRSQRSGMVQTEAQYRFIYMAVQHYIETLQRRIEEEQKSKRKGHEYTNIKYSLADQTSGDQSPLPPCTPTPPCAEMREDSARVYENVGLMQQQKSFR

inhibition [%]	SMILES
44.2	Nc1nc(N2CCN(C(=O)C3(N)CCC3)CC2)cnc1Sc1ccnc(N)c1Cl
14.3	Nc1nc(N2CCN(C(=O)C3(N)CCCCC3)CC2)cnc1Sc1ccnc(N)c1Cl
95.2	Nc1nc(N2CCN(C(=O)C3(N)CCCC3)CC2)cnc1Sc1ccnc(N)c1Cl
43.8	C[C@@H](N)C(=O)N1CCN(c2cnc(Sc3ccnc(N)c3Cl)c(N)n2)CC1
13.2	C[C@H](N)C(=O)N1CCN(c2cnc(Sc3ccnc(N)c3Cl)c(N)n2)CC1
58.8	NCC(=O)N1CCN(c2cnc(Sc3ccnc(N)c3Cl)c(N)n2)CC1
48.8	Nc1nc(N2CCN(C(=O)[C@@H]3CCCN3)CC2)cnc1Sc1ccnc(N)c1Cl
50.2	Nc1nc(N2CCN(C(=O)[C@H]3CCCN3)CC2)cnc1Sc1ccnc(N)c1Cl

These compounds were tested against T2, Tyrosine-protein phosphatase non-receptor type 11 (Homo sapiens, UniProt Q06124) (assay: Allosteric inhibition of N-terminal His-tagged human recombinant SHP2 extracted from Escherichia coli using DiFMUP as substrate preincubated with compound for 60 mins followed by substrate addition and measured after 30 mins by fluorescence based microplate reader analysis). Settings: not given.
T2 sequence (Q06124 whole entry): T1 sequence (whole entry)

IC50 [nM]	SMILES
128	CC1(N)CCN(c2cnc(Sc3cccc(NC(=O)c4cnccc4Cl)c3Cl)cn2)CC1
29.4	CC1(N)CCN(c2cnc(Sc3cccc(NC(=O)c4ccccn4)c3Cl)cn2)CC1
6.6	CC1(N)CCN(c2cnc(Sc3cccc(NC(=O)c4ncccc4O)c3Cl)cn2)CC1
365	CC1(N)CCN(c2cnc(Sc3cccc(NC(=O)c4cccnc4Cl)c3Cl)cn2)CC1
89.1	Cc1cccnc1C(=O)Nc1cccc(Sc2cnc(N3CCC(C)(N)CC3)cn2)c1Cl
49.8	CC1(N)CCN(c2cnc(Sc3cccc(NC(=O)Cc4ccccc4)c3Cl)cn2)CC1
332	CC1(N)CCN(c2cnc(Sc3cccc(NC(=O)c4cccc5ccccc45)c3Cl)cn2)CC1
32.3	CC1(N)CCN(c2cnc(Sc3cccc(NC(=O)c4ncccc4F)c3Cl)cn2)CC1
67.8	CC1(N)CCN(c2cnc(Sc3cccc(NC(=O)c4ccccc4)c3Cl)cn2)CC1
1.7	CC1(N)CCN(c2cnc(Sc3cccc(NC(=O)c4ncccc4Cl)c3Cl)cn2)CC1
77	CC1(N)CCN(c2cnc(Sc3cccc(NC(=O)c4cnccn4)c3Cl)cn2)CC1
51.9	CC1(N)CCN(c2cnc(Sc3cccc(NC(=O)c4nccs4)c3Cl)cn2)CC1
147	CC1(N)CCN(c2cnc(Sc3cccc(NC(=O)c4ccncc4Cl)c3Cl)cn2)CC1
113	CC1(N)CCN(c2cnc(Sc3cccc(NC(=O)c4ccco4)c3Cl)cn2)CC1
6.4	CC1(N)CCN(c2cnc(Sc3cccc(NC(=O)c4cnccc4O)c3Cl)cn2)CC1
52.8	CC1(N)CCN(c2cnc(Sc3cccc(NC(=O)c4ncccc4Br)c3Cl)cn2)CC1
11.3	CC1(N)CCN(c2cnc(Sc3cccc(NC(=O)c4cccnc4O)c3Cl)cn2)CC1
218	CC1(N)CCN(c2cnc(Sc3cccc(NC(=O)c4ccc(Cl)cn4)c3Cl)cn2)CC1
175	CC1(N)CCN(c2cnc(Sc3cccc(NC(=O)c4cccc(Cl)n4)c3Cl)cn2)CC1
88.6	CC1(N)CCN(c2cnc(Sc3cccc(NC(=O)c4ncccc4C(F)(F)F)c3Cl)cn2)CC1
119	CC1(N)CCN(c2cnc(Sc3cccc(NC(=O)c4cccs4)c3Cl)cn2)CC1
39.6	CC1(N)CCN(c2cnc(Sc3cccc(NC(=O)/C=C/c4ccccc4)c3Cl)cn2)CC1
30.1	CC1(N)CCN(c2cnc(Sc3cccc(NC(=O)c4ncccn4)c3Cl)cn2)CC1
219	CC1(N)CCN(c2cnc(Sc3cccc(NC(=O)c4cc(Cl)ccn4)c3Cl)cn2)CC1

More lines, now with the values behind:

SMILES	IC50 [nM]
Nc1nc(N2CCN(C(=O)C3(N)CCCC3)CC2)cnc1Sc1ccnc(N)c1Cl	530
C[C@@H]1OCC2(CCN(c3cnc(Sc4cccc(NC(=O)c5ncccc5Cl)c4Cl)cn3)CC2)[C@@H]1N	1.03
N[C@@H]1c2ccccc2CC12CCN(c1cnc(Sc3cccc(NC(=O)c4ncccc4Cl)c3Cl)cn1)CC2	1.08
N[C@@H]1c2ccccc2CC12CCN(c1cnc(Sc3cccc(NC(=O)c4ncccc4O)c3Cl)cn1)CC2	0.6
CC1(N)CCN(c2cnc(Sc3ccc(NC(=O)c4ccccc4)cc3Cl)cn2)CC1	296
C[C@@H]1OCC2(CCN(c3cnc(Sc4cccc(NC(=O)c5ncccc5O)c4Cl)cn3)CC2)[C@@H]1N	0.59
CC1(N)CCN(c2cnc(Sc3cccc(NC(=O)C4CCCCC4)c3Cl)cn2)CC1	174
N[C@@H]1c2ccccc2CC12CCN(c1cnc(Sc3cccc(NC(=O)c4cccnc4O)c3Cl)cn1)CC2	1.87
C[C@@H]1OCC2(CCN(c3cnc(Sc4cccc(NC(=O)c5cnccc5O)c4Cl)cn3)CC2)[C@@H]1N	0.17
C[C@@H]1OCC2(CCN(c3cnc(Sc4cccc(NC(=O)c5cccnc5O)c4Cl)cn3)CC2)[C@@H]1N	0.13
CC1(N)CCN(c2cnc(Sc3cccc(N)c3Cl)cn2)CC1	36.2
